# Laboratory results taken from patent US20120101015A1, “ANTI-WEAR AGENTS WITH A REDUCED NEUROTOXICITY” (priority 2009, published 2012).
# Where two headings read alike, the source gives them in different places.
# Assays:
# [1] = target: human butyrylcholine esterase (Homo sapiens, UniProt P06276); format: biochemical
# Protocol: A more sensitive assay was used in order to discriminate alkylphenyl diphenyl phosphates, di-alkylphenyl phenyl phosphates and tri-alkylphenyl phosphates based on their potential ability to inhibit BChE.
# The assay was essentially the same as that described in Example 2 except that the triaryl phosphate solution to be tested was prepared in pure ethanol instead of in sodium phosphate buffer.
# Some experiments were performed with rat liver microsomes (RLM) because human liver microsomes (HLM) were not available in sufficient quantity. However, human butyrylcholine esterase was used in all assays.
# Briefly, base stock triarylphosphate solutions were prepared by dissolution or dilution of a triarylphosphate of interest in ethanol at 2.5 mg/ml. Dilution solutions were then prepared in buffer containing 10% ethanol. 7.5 μl of each dilution solution comprising a triarylphosphate was added to a liver microsome mix in phosphate buffer to give a solution comprising microsomes, NADPH (1 mM) and triarylphosphate at a concentration ranging from 0.20 to 25 μg/ml. This pre-incubation was done at room temperature for 20-25 minutes. After incubation, 7.5 μl of BChE solution (at 9.75 μg/ml in phosphate buffer) was added to the resulting microsome-containing solution. The resulting solution was incubated for 20-25 minutes. The BChE residual activity was then measured as described in Example 2 hereabove.
# For each triarylphosphates, the percentages of residual BChE activity were determined for triarylphosphate final concentrations ranging from 0.3 μg/ml to 20 μg/ml.
# The Durad 125® combination was used as positive control. For reminder, Durad 125 consists in a mixture of meta and para isomers of tricresyl phosphate.
# hens = conditions: oral, Weiner and Jortner 1999; cited from earlier work
# [2] = target: human butyrylcholinesterase (BChE) (Homo sapiens, UniProt P06276); assay: In vitro BChE activity assay after incubation with human liver microsomes and NADPH (Example 2, stock in phosphate buffer); format: biochemical; conditions: for BChE residual activity percentage: triaryl phosphate 25 μg/ml, BChE reference activity 3.76 nmol DTNB/min
# Protocol: As part of the study, the neurotoxicity of triaryl phosphates and combinations thereof was evaluated through an in vitro test using a model enzyme of esterase: the human butyrylcholinesterase. The human butyrylcholinesterase (BChE), or plasma cholinesterase, has an enzyme activity profile close to that of human acetylcholinesterase.
# In this assay, triarylphosphates of interest are first incubated with human liver microsomes in the presence of NADPH to enable the production of potential metabolites. The incubation with microsomes is then followed by incubation with purified human BChE in the context of a micro-BChE activity assay.
# This in vitro assay thus reproduces the in vivo metabolization of triaryl phosphates in the liver and enables to evaluate the anti-esterase activity of the resulting metabolites.
# Six individual preparations of the same amount were collected to form a homogeneous pool representing the variability amongst the individuals, using a Potter-Elvehem Glass-Teflon homogenizer, with a 5 run-procedure in ice.
# Mixture samples of 1.7 ml were collected in polypropylene centrifuge tubes, and thereafter stored at −80° C. The measured liver microsome content was 7.83 mg/ml.
# A 250 μg/ml triaryl phosphate solution was prepared in a 50 mM sodium phosphate buffer at pH 7.4 by vigorously stirring in a vortex mixer for one minute. […]
# The BChE activity is then measured according to the protocol defined by Ellman and al, (Ellman and al., 1961, Biochem Pharmacol, 7: 88-95), modified for use in micro-titration format. […]
# Monitoring the TNB formation is effected by measuring the absorbance at 405 nm for 4 minutes at 23° C. with a microplate optical reader such as SpectraMax Plus spectrophotometer.
# The BChE residual activity in the presence of triaryl phosphate is then expressed depending on the BChE reference activity, that is to say depending on the BChE activity measured in the presence of liver microsomes and NADPH and in the absence of triaryl phosphate (reference experiment).
# plasma BChE = plasma BChE (Rattus norvegicus, UniProt Q9JKC1); conditions: oral dose of 240 mg/kg, 24 hours post-dosing
# Protocol: The activity of BChE in the plasma of rats was determined following oral administration of 240, 120, 60 and 10 mg/kg of body weight of Durad 125 or tri-para-tert-butyl phosphate at 6 hours postdosing and 24 hours postdosing. Each dose solution was prepared in a corn oil vehicle and administered by gavage. Control animals were administered an appropriate amount of corn oil (witout any triarylphosphate compounds). All animals were fasted for approximately 16 h prior to administration of the dose containing Durad 125, tri-p-t-butylphenyl phosphate or only corn oil.
# Three to six animals per time point and per dose were humanely anesthetized, and sacrificed. For each animal, the blood was collected and the plasma was separated by centrifugation. The plasma samples were then stored at −80° C. until performing the BChE activity assay.
# The BChE activity assay was performed as previously described according to Ellman et al (Biochem. Pharmacol. 7, 88-95).
# [3] = rat liver microsomes (RLM), concentrations 1 μg/ml to 20 μg/ml
# [4] = human liver microsomes (HLM), concentrations 1 μg/ml to 20 μg/ml
# [5] = human liver microsomes, up to 20 μg/ml (FIG. 3a)
# Sequence of human butyrylcholine esterase (P06276 29-602): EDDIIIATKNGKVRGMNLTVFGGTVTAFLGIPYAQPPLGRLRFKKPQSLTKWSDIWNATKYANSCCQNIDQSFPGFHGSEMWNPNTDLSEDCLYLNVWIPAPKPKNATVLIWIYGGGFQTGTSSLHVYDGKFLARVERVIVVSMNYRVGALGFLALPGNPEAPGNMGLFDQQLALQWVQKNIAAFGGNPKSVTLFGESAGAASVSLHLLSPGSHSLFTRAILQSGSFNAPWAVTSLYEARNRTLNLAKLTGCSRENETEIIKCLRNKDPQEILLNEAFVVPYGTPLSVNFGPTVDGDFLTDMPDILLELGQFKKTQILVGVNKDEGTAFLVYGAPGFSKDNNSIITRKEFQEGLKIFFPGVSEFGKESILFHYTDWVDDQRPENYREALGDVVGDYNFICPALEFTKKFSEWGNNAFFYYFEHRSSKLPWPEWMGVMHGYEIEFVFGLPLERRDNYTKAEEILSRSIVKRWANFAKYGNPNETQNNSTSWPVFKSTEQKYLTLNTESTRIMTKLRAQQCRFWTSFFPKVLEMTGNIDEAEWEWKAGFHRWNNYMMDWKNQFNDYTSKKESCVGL
# Sequence of human butyrylcholinesterase (BChE) (P06276 29-602): as above
# Sequence of plasma BChE (Q9JKC1 24-597): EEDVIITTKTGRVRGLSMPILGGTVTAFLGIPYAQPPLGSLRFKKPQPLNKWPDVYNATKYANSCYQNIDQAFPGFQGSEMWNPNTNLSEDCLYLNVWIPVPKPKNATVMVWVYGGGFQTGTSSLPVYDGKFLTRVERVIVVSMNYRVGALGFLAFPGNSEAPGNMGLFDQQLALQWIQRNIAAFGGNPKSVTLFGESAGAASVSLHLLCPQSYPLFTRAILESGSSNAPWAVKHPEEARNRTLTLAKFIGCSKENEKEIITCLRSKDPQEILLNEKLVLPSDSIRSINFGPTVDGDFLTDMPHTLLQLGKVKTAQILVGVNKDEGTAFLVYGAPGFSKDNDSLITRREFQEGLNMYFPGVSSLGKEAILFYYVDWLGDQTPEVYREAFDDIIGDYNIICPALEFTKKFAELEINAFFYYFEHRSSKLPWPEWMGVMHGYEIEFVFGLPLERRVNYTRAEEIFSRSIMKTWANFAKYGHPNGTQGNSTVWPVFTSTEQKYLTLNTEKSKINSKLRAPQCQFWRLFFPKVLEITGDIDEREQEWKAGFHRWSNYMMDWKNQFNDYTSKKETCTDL
molecule,measurement,setting,value
1-methylnonylphenyl diphenyl phosphate,Minimal BChE residual activity,[1]; [3],5.2%
"Cc1ccccc1OP(=O)(Oc1ccccc1C)Oc1ccccc1C [C6, tri-ortho-cresyl phosphate]",neurotoxicity,hens,highly neurotoxicity
same,BChE residual activity percentage,[2],very low
"O=P(Oc1ccccc1)(Oc1ccccc1)Oc1ccccc1 [C7, tri-phenylphosphate]",neurotoxicity,hens,non neurotoxic or poorly neurotoxic
same,BChE inhibiting potential after incubation,[2],non negligible inhibiting potential
same,BChE residual activity percentage,[2],44.8 +/− 10.4%
"CC(C)(C)c1ccc(OP(=O)(Oc2ccc(C(C)(C)C)cc2)Oc2ccc(C(C)(C)C)cc2)cc1 [P1, Tri-para-tert-butylphenyl phosphate]",Minimal BChE residual activity,[1]; [4],90%
same,inhibition of BChE,[1]; [5],did not induce a significant inhibition of BChE
same,Minimal BChE residual activity,[1]; [3],>100%
same,inhibition of plasma BChE,plasma BChE,does not induce BChE inhibition
"CC(C)c1ccc(OP(=O)(Oc2ccc(C(C)C)cc2)Oc2ccc(C(C)C)cc2)cc1 [P2, Tri-para-isopropylphenyl phosphate]",Minimal BChE residual activity,[1],>100%
same,inhibition of BChE,[1],did not inhibit BChE
"CC(C)c1ccccc1OP(=O)(Oc1ccccc1C(C)C)Oc1ccccc1C(C)C [P3, Tri-ortho-isopropylphenyl phosphate]",Minimal BChE residual activity,[1],72.6%
CC(C)c1ccc(OP(=O)(Oc2ccccc2)Oc2ccc(C(C)C)cc2)cc1 [di-para-isopropylphenyl phenylphosphate],Minimal BChE residual activity,[1]; [3],76.5%
CC(C)(C)c1ccc(OP(=O)(Oc2ccccc2)Oc2ccc(C(C)(C)C)cc2)cc1 [di-para-tert-butylphenyl phenylphosphate],Minimal BChE residual activity,[1]; [4],85.2%
same,inhibition of BChE,[1]; [5],did not induce a significant inhibition of BChE
CC(C)(C)c1ccc(OP(=O)(Oc2ccccc2)Oc2ccccc2)cc1 [para-tert-butylphenyl diphenyl phosphate],Minimal BChE residual activity,[1]; [4],44.9%
same,inhibition of BChE,"[1]; human liver microsomes, concentrations higher than 5 μg/ml (FIG. 3a)",at least 40%
CC(C)(C)c1cccc(OP(=O)(Oc2cccc(C(C)(C)C)c2)Oc2cccc(C(C)(C)C)c2)c1 [tri-meta-tert-butylphenyl phosphate],Minimal BChE residual activity,[1],>100%
CC(C)(C)c1ccccc1OP(=O)(Oc1ccccc1C(C)(C)C)Oc1ccccc1C(C)(C)C [tri-ortho-tert-butylphenyl phosphate],Minimal BChE residual activity,[1],>100%
dodecylphenyl diphenyl phosphate,Minimal BChE residual activity,[1]; [3],16%
